{"source": "ChEMBL document CHEMBL3526034", "about": "(Drug Metab Dispos, 2013)", "key": {"Cytochrome P450 2C8": {"biological_target": "T1, Cytochrome P450 2C8 (Homo sapiens, UniProt P10632)", "T1 sequence (P10632 whole entry)": "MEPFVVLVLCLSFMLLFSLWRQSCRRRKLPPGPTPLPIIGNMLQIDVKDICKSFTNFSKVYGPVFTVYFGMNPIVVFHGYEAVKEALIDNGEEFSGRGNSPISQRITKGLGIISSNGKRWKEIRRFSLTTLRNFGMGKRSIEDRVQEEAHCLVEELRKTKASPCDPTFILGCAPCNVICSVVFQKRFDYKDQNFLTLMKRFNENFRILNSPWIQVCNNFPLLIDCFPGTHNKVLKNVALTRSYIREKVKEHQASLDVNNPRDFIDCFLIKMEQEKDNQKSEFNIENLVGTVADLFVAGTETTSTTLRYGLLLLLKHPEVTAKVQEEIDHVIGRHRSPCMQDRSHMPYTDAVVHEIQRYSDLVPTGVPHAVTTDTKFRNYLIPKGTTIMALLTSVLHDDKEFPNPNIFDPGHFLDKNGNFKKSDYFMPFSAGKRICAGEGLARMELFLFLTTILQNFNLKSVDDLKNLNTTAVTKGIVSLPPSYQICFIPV", "assay": "Inhibition of CYP2C8 in human liver microsomes using rosiglitazone as substrate preincubated for 20 mins with substrate prior to initiation of reaction with NADPH by HPLC analysis", "type": "ADME"}, "[1]": {"biological_target": "Solute carrier organic anion transporter family member 1B3 (Homo sapiens, UniProt Q9NPD5)", "sequence (Q9NPD5 whole entry)": "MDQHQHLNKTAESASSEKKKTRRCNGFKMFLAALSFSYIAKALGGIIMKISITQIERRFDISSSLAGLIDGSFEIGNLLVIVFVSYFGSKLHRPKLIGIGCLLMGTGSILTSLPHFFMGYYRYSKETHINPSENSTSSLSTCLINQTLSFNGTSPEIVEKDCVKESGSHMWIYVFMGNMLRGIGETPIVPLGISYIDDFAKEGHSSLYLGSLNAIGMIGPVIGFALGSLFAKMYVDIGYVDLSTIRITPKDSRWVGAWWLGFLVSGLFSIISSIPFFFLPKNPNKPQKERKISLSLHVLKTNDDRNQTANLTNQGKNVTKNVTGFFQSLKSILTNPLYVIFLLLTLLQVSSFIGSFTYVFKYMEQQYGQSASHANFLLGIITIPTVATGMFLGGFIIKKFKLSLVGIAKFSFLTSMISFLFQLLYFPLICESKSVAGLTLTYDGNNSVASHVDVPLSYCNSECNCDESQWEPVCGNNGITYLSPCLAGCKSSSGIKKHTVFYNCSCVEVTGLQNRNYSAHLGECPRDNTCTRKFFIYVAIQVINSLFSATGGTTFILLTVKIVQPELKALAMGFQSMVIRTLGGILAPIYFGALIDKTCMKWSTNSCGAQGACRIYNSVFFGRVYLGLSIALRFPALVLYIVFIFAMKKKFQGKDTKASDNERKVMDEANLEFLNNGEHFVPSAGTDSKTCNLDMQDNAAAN", "assay": "Inhibition of human OATP1B3 expressed in BacMam baculovirus virus infected HEK MSR2 cells using [3H]estradiol 17beta-D-glucuronide as substrate by liquid scintillation counting analysis", "type": "ADME, HEK293"}, "Cytochrome P450 1A2 [2]": {"biological_target": "T2, Cytochrome P450 1A2 (Homo sapiens, UniProt P05177)", "T2 sequence (P05177 whole entry)": "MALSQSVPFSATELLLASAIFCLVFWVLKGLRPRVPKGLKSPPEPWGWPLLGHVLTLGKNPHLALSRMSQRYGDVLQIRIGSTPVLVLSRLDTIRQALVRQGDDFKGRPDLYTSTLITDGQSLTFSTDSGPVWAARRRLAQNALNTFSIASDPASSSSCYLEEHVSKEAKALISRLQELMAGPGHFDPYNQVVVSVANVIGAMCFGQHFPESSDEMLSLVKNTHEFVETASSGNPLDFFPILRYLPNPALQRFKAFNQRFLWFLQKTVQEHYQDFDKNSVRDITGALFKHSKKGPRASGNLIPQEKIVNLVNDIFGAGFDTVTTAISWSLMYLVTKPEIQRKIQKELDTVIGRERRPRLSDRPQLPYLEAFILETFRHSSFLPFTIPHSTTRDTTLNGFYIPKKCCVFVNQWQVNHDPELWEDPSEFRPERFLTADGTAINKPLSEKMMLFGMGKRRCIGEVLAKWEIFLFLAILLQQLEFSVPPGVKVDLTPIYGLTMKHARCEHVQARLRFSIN", "assay": "Drug metabolism in supersomes expressing human recombinant CYP1A2 assessed as NADPH-fortified enzyme-mediated metabolite formation at 5 uM after 120 mins by radio HPLC analysis", "type": "ADME", "details": "2 h"}, "Cytochrome P450 2A6 [3]": {"biological_target": "T3, Cytochrome P450 2A6 (Homo sapiens, UniProt P11509)", "T3 sequence (P11509 whole entry)": "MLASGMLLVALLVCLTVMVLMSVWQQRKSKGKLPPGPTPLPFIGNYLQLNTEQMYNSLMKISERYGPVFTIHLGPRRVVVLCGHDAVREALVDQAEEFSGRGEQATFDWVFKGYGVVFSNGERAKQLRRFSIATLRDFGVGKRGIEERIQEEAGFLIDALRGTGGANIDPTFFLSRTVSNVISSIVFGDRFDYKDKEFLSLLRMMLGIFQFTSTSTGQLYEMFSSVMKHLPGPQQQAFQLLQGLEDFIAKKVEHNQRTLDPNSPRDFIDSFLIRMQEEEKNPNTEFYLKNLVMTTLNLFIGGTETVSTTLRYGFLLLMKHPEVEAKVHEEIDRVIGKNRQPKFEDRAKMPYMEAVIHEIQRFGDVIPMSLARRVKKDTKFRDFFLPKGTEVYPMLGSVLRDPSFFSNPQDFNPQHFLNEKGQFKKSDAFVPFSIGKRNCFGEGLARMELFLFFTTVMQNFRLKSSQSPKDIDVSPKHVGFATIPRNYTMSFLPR", "assay": "Inhibition of CYP2A6 in human liver microsomes using coumarin as substrate preincubated for 20 mins with substrate prior to initiation of reaction with NADPH by HPLC analysis", "type": "ADME"}, "[4]": {"biological_target": "UDP-glucuronosyltransferase 1A4 (Homo sapiens, UniProt P22310)", "sequence (P22310 whole entry)": "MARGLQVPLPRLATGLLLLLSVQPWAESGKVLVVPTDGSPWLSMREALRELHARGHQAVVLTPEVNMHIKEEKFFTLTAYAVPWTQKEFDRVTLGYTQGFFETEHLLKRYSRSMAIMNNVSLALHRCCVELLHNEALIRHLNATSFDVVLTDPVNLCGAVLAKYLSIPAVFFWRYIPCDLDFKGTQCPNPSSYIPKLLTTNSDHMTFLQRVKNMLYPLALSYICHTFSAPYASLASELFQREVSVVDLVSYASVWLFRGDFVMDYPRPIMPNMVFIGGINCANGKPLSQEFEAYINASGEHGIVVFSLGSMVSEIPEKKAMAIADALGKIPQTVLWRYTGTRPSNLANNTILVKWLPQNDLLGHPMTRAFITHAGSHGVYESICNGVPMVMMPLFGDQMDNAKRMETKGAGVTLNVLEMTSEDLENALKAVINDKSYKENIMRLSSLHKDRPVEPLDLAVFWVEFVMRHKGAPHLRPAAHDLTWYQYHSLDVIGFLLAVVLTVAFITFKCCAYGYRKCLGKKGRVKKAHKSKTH", "assay": "(§1) Drug metabolism assessed as UDPGA-fortified human recombinant UGT1A4-mediated DTG glucuronide metabolite ((2S,3S,4S,5R,6S)-6-((4R,12aS)-9-(2,4-difluorobenzylcarbamoyl)-4-methyl-6,8-dioxo-3,4,6,8,12,12a-hexahydro-2H-[1,3]oxazino[3,2-d]pyrido[1,2-a]pyrazin-7-yloxy)-3,4,5-trihydroxytetrahydro-2H-pyran-2-carboxylic acid) formation at 16 uM after 120 mins by radio-HPLC analysis", "type": "ADME", "details": "recombinant enzyme"}, "[5]": {"assay": "Drug excretion in human feces at 20 mg, po", "type": "ADME, tissue-based", "details": "faeces, read-out: Drug excretion"}, "Cytochrome P450 2C19": {"biological_target": "Cytochrome P450 2C19 (Homo sapiens, UniProt P33261)", "sequence (P33261 whole entry)": "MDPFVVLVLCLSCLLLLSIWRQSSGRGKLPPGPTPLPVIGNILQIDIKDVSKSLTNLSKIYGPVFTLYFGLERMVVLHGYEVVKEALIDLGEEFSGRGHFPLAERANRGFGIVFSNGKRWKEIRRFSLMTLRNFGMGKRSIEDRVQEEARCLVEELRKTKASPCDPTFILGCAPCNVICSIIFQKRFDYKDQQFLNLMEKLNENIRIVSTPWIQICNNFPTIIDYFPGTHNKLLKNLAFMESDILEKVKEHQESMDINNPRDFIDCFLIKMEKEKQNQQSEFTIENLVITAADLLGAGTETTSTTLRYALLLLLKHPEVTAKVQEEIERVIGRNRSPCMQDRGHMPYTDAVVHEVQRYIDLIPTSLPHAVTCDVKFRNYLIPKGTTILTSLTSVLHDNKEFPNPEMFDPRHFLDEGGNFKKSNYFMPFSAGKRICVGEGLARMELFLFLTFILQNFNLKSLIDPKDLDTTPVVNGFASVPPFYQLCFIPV", "assay": "Metabolism-dependent inhibition of CYP2C19 in human liver microsomes using S-mephenytoin as substrate preincubated for 20 mins with NADPH prior to initiation of reaction with probe substrate by HPLC analysis", "type": "ADME"}, "[6]": {"biological_target": "T4, ATP-dependent translocase ABCB1 (Homo sapiens, UniProt P08183)", "T4 sequence (P08183 whole entry)": "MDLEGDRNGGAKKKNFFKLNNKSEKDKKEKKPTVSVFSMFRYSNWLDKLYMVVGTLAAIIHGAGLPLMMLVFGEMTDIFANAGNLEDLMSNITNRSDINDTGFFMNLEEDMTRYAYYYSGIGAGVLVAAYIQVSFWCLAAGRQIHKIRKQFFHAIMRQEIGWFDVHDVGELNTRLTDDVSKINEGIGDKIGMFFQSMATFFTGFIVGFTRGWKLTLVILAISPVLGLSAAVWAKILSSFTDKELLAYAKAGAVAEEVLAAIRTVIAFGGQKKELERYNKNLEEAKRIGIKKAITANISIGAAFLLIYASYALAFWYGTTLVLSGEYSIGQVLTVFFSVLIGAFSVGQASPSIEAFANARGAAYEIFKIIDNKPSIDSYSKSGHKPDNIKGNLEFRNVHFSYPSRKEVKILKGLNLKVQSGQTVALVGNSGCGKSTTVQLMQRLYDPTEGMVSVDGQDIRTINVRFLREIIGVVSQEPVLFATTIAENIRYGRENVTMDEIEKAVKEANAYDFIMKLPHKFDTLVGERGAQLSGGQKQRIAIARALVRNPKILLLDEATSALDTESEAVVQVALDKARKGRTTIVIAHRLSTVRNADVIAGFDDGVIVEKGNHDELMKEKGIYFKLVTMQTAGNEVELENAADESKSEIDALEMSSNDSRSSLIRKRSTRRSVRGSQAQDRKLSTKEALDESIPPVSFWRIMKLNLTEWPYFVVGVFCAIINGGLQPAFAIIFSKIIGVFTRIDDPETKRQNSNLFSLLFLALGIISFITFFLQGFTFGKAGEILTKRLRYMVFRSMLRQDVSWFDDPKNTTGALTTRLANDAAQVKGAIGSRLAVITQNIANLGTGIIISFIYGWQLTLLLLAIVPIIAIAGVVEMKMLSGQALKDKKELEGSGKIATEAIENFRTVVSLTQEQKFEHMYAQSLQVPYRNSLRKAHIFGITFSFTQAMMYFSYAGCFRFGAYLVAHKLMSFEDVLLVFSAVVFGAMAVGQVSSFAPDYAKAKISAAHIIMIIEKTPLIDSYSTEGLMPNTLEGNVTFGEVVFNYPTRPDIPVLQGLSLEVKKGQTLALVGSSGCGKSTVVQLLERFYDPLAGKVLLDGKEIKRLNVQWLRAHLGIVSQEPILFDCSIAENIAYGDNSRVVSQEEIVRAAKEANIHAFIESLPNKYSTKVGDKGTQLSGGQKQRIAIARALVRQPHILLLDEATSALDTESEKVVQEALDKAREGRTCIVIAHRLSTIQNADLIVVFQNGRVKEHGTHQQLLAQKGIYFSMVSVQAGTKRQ", "assay": "Inhibition of MDR1 (unknown origin) expressed in MDCK2 cells assessed as basolateral to apical transport of [3H]digoxin after 90 mins by liquid scintillation counting analysis", "type": "ADME, cell-based, MDCK-II"}, "Cytochrome P450 1A2 [7]": {"biological_target": "T2, Cytochrome P450 1A2", "assay": "Metabolism-dependent inhibition of CYP1A2 in human liver microsomes using phenacetin as substrate preincubated for 20 mins with NADPH prior to initiation of reaction with probe substrate by HPLC analysis", "type": "ADME"}, "[8]": {"biological_target": "Solute carrier family 22 member 2 (Homo sapiens, UniProt O15244)", "sequence (O15244 whole entry)": "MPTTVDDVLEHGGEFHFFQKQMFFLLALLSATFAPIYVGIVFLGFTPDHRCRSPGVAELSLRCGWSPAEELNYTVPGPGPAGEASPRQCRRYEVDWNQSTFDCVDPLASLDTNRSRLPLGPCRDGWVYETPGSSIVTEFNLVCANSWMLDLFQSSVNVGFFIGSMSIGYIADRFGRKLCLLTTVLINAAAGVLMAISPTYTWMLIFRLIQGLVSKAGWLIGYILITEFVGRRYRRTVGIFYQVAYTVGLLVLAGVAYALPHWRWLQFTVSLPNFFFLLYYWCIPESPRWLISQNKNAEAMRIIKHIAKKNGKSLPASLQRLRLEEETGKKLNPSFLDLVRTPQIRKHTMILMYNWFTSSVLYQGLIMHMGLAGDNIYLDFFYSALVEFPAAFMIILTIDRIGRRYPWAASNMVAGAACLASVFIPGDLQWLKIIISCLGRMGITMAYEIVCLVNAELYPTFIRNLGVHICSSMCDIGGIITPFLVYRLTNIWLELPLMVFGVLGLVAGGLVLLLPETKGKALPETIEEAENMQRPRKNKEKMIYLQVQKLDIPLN", "assay": "Inhibition of human OCT2 expressed in MDCK2 cells using [14C]metformin as substrate by liquid scintillation counting analysis", "type": "ADME, cell-based, MDCK-II"}, "CYP2B6": {"biological_target": "CYP2B6 (Homo sapiens, UniProt P20813)", "sequence (P20813 whole entry)": "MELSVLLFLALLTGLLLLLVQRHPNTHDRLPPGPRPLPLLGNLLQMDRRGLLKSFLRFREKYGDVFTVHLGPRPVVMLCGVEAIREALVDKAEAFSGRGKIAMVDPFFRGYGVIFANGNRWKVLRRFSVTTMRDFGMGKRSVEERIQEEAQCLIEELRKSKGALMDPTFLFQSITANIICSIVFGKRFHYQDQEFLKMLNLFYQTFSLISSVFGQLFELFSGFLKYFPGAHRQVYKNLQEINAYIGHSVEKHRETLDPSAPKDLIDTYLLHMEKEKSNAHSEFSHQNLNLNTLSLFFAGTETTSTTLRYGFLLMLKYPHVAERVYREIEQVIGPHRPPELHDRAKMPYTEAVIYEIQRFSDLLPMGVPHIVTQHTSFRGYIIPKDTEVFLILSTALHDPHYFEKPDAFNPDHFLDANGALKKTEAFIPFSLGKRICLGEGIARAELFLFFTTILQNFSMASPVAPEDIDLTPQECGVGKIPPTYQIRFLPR", "assay": "Inhibition of CYP2B6 in human liver microsomes using bupropion as substrate at 100 uM preincubated for 20 mins with substrate prior to initiation of reaction with NADPH by HPLC analysis", "type": "ADME", "details": "probe bupropion"}, "Cytochrome P450 2A6 [9]": {"biological_target": "T3, Cytochrome P450 2A6", "assay": "Metabolism-dependent inhibition of CYP2A6 in human liver microsomes using coumarin as substrate preincubated for 20 mins with NADPH prior to initiation of reaction with probe substrate by HPLC analysis", "type": "ADME"}, "[10]": {"biological_target": "T5, UDP-glucuronosyltransferase 1A1 (Homo sapiens, UniProt P22309)", "T5 sequence (P22309 whole entry)": "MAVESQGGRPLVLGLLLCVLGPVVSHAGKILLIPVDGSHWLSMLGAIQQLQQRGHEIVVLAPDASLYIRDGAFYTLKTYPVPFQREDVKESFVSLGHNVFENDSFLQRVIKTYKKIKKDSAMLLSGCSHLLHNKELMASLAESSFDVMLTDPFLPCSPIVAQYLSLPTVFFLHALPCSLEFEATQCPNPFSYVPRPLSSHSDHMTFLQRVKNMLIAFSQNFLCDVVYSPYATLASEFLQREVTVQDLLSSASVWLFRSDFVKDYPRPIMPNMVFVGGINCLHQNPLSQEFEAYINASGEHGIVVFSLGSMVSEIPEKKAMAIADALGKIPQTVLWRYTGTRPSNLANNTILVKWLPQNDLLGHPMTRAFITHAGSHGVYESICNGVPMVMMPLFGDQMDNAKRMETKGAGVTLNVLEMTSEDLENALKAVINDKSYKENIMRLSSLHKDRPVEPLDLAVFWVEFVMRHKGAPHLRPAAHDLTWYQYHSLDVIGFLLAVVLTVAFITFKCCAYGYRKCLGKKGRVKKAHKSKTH", "assay": "Drug metabolism in UDPGA-fortified human liver microsomes assessed as intrinsic clearance for UGT1A1-mediated DTG glucuronide M2 ((2S,3S,4S,5R,6S)-6-((4R,12aS)-9-(2,4-difluorobenzylcarbamoyl)-4-methyl-6,8-dioxo-3,4,6,8,12,12a-hexahydro-2H-[1,3]oxazino[3,2-d]pyrido[1,2-a]pyrazin-7-yloxy)-3,4,5-trihydroxytetrahydro-2H-pyran-2-carboxylic acid) formation after 120 mins measured per mg of protein by radio-HPLC analysis", "type": "ADME"}, "[11]": {"biological_target": "T4, ATP-dependent translocase ABCB1", "assay": "Inhibition of human MDR1", "type": "ADME"}, "[12]": {"assay": "Drug excretion in human urine at 20 mg, po", "type": "ADME, tissue-based", "details": "read-out: Drug excretion"}, "Liver microsome": {"system": "Liver microsome", "assay": "as §1, with “metabolism in UDPGA-fortified human liver microsomes” for “metabolism”, “as” for “as UDPGA-fortified human recombinant UGT1A4-mediated”, “10” for “16”, “analysis in presence of UGT1A1 inhibitor atazanavir” for “analysis”", "type": "ADME"}}, "data": [{"smiles": "C[C@@H]1CCO[C@H]2Cn3cc(C(=O)NCc4ccc(F)cc4F)c(=O)c(O)c3C(=O)N12", "note": "[DOLUTEGRAVIR]", "values": [{"measurement": "IC50", "setting": "Cytochrome P450 2C8", "result": "> 100", "unit": "µM"}, {"measurement": "IC50", "setting": "[1]", "result": "> 100", "unit": "µM"}, {"measurement": "Drug metabolism", "setting": "Cytochrome P450 1A2 [2]", "result": "metabolite_not_detected"}, {"measurement": "IC50", "setting": "Cytochrome P450 2A6 [3]", "result": "> 100", "unit": "µM"}, {"measurement": "Drug metabolism", "setting": "[4]", "result": "metabolite_not_detected"}, {"measurement": "dose excreted", "setting": "[5]", "result": 3.1, "unit": "%"}, {"measurement": "IC50", "setting": "Cytochrome P450 2C19", "result": "> 100", "unit": "µM"}, {"measurement": "IC50", "setting": "[6]", "result": "> 100", "unit": "µM"}, {"measurement": "IC50", "setting": "Cytochrome P450 1A2 [7]", "result": "> 100", "unit": "µM"}, {"measurement": "IC50", "setting": "[8]", "result": 1.9, "unit": "µM"}, {"measurement": "inhibition at 100 µM", "setting": "CYP2B6", "result": 20, "unit": "%"}, {"measurement": "IC50", "setting": "Cytochrome P450 2A6 [9]", "result": "> 100", "unit": "µM"}, {"measurement": "CLH", "setting": "[10]", "result": 2.7, "unit": "µL/min/g"}, {"measurement": "IC50", "setting": "[11]", "result": "> 90", "unit": "µM"}, {"measurement": "dose excreted", "setting": "[12]", "result": 31.6, "unit": "%"}, {"measurement": "Drug metabolism", "setting": "Liver microsome", "result": "metabolite_not_detected"}]}]}
